# In US20240018161A1, “MODULATORS OF CYSTIC FIBROSIS TRANSMEMBRANE CONDUCTANCE REGULATOR” (VERTEX PHARMACEUTICALS INCORPORATED, priority 2020, published 2024):
# Like-named read-outs stand apart in the source and are kept apart here.
# Molecular target: CFTR-mediated chloride transport in human intestinal epithelial enteroid cells (Homo sapiens, UniProt P13569)
# Test: Membrane potential dye, Enteroid Assay A
# Format: cell-based
# Details: for EC50: read-out: Ent. A EC50
# Procedure, shortened: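 Membrane potential dye (20 μM methyl oxonol, with 30 μM CaCCinh-A01 and 30 μM Chicago Sky Blue) loaded 25 min at room temperature into ROCK-inhibitor-seeded human enteroid cells. Chloride-free stimulation buffer triggered transport, followed by 15 min fluorescence. % Activity relative to 3 μM/3 μM/300 nM triple-combination control.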
# [1] = enteroid cells incubated with test compound 18-24 hours, acute 10 μM forskolin and 300 nM N-[2,4-bis(1,1-dimethylethyl)-5-hydroxyphenyl]-1,4-dihydro-4-oxoquinoline-3-carboxamide
# [2] = percentage of chloride transport of triple combination control (3 μM N-[(6-amino-2-pyridyl)sulfonyl]-6-(3-fluoro-5-isobutoxy-phenyl)-2-[(4S)-2,2,4-trimethylpyrrolidin-1-yl]pyridine-3-carboxamide based)
# Sequence of CFTR-mediated chloride transport in human intestinal epithelial enteroid cells (P13569 with tags, fused parts or gaps DEL508-508): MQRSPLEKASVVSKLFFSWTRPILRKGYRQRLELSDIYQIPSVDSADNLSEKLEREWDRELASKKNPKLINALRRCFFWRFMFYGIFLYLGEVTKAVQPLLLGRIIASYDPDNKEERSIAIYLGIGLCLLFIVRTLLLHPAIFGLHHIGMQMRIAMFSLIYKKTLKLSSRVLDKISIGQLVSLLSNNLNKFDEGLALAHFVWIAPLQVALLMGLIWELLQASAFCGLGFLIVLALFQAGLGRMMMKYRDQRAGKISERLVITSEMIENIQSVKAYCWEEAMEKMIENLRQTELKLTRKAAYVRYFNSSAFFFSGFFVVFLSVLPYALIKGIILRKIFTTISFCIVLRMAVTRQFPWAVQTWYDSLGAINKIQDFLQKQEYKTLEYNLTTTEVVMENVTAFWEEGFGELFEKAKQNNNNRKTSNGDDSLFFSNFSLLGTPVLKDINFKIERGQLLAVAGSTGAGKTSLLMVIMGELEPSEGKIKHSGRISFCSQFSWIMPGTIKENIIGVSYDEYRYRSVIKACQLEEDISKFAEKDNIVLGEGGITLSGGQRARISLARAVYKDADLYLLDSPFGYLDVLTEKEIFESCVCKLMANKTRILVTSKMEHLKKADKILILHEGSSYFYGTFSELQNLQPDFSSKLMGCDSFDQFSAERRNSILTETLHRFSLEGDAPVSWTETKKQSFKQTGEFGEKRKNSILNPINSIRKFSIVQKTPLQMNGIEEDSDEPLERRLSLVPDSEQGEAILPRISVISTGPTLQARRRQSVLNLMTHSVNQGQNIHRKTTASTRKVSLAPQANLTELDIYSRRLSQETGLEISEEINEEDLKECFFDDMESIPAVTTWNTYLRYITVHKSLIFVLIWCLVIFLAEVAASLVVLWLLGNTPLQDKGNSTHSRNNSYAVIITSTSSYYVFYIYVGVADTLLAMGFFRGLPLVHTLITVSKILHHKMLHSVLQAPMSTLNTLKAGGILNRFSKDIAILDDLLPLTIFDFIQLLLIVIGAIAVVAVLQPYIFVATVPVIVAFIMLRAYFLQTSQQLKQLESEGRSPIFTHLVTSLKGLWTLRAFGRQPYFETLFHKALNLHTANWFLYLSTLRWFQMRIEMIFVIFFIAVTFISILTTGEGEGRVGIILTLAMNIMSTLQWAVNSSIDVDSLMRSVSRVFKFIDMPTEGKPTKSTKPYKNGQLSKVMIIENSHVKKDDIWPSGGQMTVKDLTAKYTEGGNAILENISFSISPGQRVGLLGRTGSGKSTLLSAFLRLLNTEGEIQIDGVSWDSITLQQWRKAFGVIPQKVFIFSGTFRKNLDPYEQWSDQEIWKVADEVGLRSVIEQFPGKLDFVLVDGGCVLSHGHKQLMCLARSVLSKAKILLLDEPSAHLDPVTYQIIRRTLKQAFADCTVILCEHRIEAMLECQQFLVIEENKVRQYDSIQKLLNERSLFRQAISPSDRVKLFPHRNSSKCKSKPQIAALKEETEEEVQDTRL
Structure (SMILES),Ent. A Max Activity (%) (Enteroid Assay A),EC50 (Enteroid Assay A) [nM],EC50 [1] [nM],Ent. A Max Activity (%) [2]
Cc1cccc(C)c1-c1cc2nc(n1)NS(=O)(=O)c1cccc(c1)C(=O)N1CCN(CCC3C4(CC4)C34CC4)C[C@H](C1)O2 [Compound 18],+ (+ is <30%),1000 to 3000,,
Cc1cccc(C)c1-c1cc2nc(n1)NS(=O)(=O)c1cccc(c1)C(=O)N1CCN(CC(C)(C)C)C[C@H](C1)O2 [Compound 19],+++ (+++ is >600%),< 1000,,
Cc1cccc(C)c1-c1cc2nc(n1)NS(=O)(=O)c1cccc(c1)C(=O)N1CCN(C3C(C)(C)CC3(C)C)C[C@H](C1)O2 [Compound 20],+++ (+++ is >600%),< 1000,,
Cc1cccc(C)c1-c1cc2nc(n1)NS(=O)(=O)c1cccc(c1)C(=O)N1CCN(C3CC(F)(F)C3)C[C@H](C1)O2 [Compound 21],+++ (+++ is >600%),< 1000,,
Cc1cccc(C)c1-c1cc2nc(n1)NS(=O)(=O)c1cccc(c1)C(=O)N1CCN(C3CCCCC3)C[C@H](C1)O2 [Compound 22],+++ (+++ is >600%),< 1000,,
Cc1cccc(C)c1-c1cc2nc(n1)NS(=O)(=O)c1cccc(c1)C(=O)N1CCN(C3CC4(CC4)C3)C[C@H](C1)O2 [Compound 23],+++ (+++ is >600%),< 1000,,
Cc1cccc(C)c1-c1cc2nc(n1)NS(=O)(=O)c1cccc(c1)C(=O)N1CCN(C3CC(C)(C)C3)C[C@H](C1)O2 [Compound 24],++ (++ is 30-60%),< 1000,,
Cc1cccc(C)c1-c1cc2nc(n1)NS(=O)(=O)c1cccc(c1)C(=O)N1CCN(C3CC4(COC4)C3)C[C@H](C1)O2 [Compound 25],++ (++ is 30-60%),3000 to 30000,,
Cc1cccc(C)c1-c1cc2nc(n1)NS(=O)(=O)c1cccc(c1)C(=O)N1CCN(C3CC4(CCC4)C3)C[C@H](C1)O2 [Compound 26],+++ (+++ is >600%),< 1000,,
Cc1cccc(C)c1-c1cc2nc(n1)NS(=O)(=O)c1cccc(c1)C(=O)N1CCN(CCCCO)C[C@H](C1)O2 [Compound 33],+++ (+++ is >600%),3000 to 30000,,
CCOC(=O)C1CC1CN1CCN2C[C@@H](C1)Oc1cc(-c3c(C)cccc3C)nc(n1)NS(=O)(=O)c1cccc(c1)C2=O (some centres unmarked) [Compound 34],+++ (+++ is >600%),< 1000,,
"Cc1cccc(C)c1-c1cc2nc(n1)NS(=O)(=O)c1cccc(c1)C(=O)N1CCN(C3CCC(F)CC3)C[C@H](C1)O2 (stereo partly drawn) [Compound 40, (16R)-12-(2,6-Dimethylphenyl)-18-(4-fluorocyclohexyl)-15-oxa-8λ^6-thia-1,9,11,18,22-pentaazatetracyclo[14.4.1.13,7.110,14]tricosa-3(23),4,6,10,12,14(22)-hexaene-2,8,8-trione]",+++ (+++ is >600%),< 1000,,
"Cc1cccc(C)c1-c1cc2nc(n1)NS(=O)(=O)c1cccc(c1)C(=O)N1CCN(C3CCC4(CC3)COC4)C[C@H](C1)O2 [Compound 41, (16R)-12-(2,6-Dimethylphenyl)-18-{2-oxaspiro[3.5]nonan-7-yl}-15-oxa-8λ^6-thia-1,9,11,18,22-pentaazatetracyclo[14.4.1.13,7.110,14]tricosa-3(23),4,6,10,12,14(22)-hexaene-2,8,8-trione]",+++ (+++ is >600%),< 1000,,
"Cc1cccc(C)c1-c1cc2nc(n1)NS(=O)(=O)c1cccc(c1)C(=O)N1CCNCC(C1)O2 (centres unmarked) [Compound 42, 12-(2,6-Dimethylphenyl)-15-oxa-8λ^6-thia-1,9,11,18,22-pentaazatetracyclo[14.4.1.13,7.110,14]tricosa-3(23),4,6,10(22),11,13-hexaene-2,8,8-trione]",,,,++ (++ is 30-60%)
Cc1cccc(C)c1-c1cc2nc(n1)NS(=O)(=O)c1cccc(c1)C(=O)N1CCN(CCC(C)(C)C)CC(C1)O2 (centres unmarked) [Compound 45],,,< 1000,+++ (+++ is >60%)
Cc1cccc(C)c1-c1cc2nc(n1)NS(=O)(=O)c1cccc(c1)C(=O)N1CCN(C3CCC(F)(F)CC3)CC(C1)O2 (centres unmarked) [Compound 46],+++ (+++ is >600%),< 1000,,
CNc1ccc(CN2CCN3CC(C2)Oc2cc(-c4c(C)cccc4C)nc(n2)NS(=O)(=O)c2cccc(c2)C3=O)cn1 (centres unmarked) [Compound 47],,,3000 to 30000,+++ (+++ is >60%)
Cc1cccc(C)c1-c1cc2nc(n1)NS(=O)(=O)c1cccc(c1)C(=O)N1CCN(Cc3ccn[nH]3)CC(C1)O2 (centres unmarked) [Compound 48],,,3000 to 30000,++ (++ is 30-60%)
Cc1cccc(C)c1-c1cc2nc(n1)NS(=O)(=O)c1cccc(c1)C(=O)N1CCN(Cc3ccn(C)n3)CC(C1)O2 (centres unmarked) [Compound 49],,,3000 to 30000,+++ (+++ is >60%)
Cc1cccc(C)c1-c1cc2nc(n1)NS(=O)(=O)c1cccc(c1)C(=O)N1CCN(Cc3cncn3C)CC(C1)O2 (centres unmarked) [Compound 51],,,,+ (+ is <300%)
Cc1cccc(C)c1-c1cc2nc(n1)NS(=O)(=O)c1cccc(c1)C(=O)N1CCN(Cc3nccs3)CC(C1)O2 (centres unmarked) [Compound 52],,,1000 to 3000,++ (++ is 30-60%)
Cc1cccc(C)c1-c1cc2nc(n1)NS(=O)(=O)c1cccc(c1)C(=O)N1CCN(Cc3ccccc3C#N)CC(C1)O2 (centres unmarked) [Compound 54],,,< 1000,+++ (+++ is >60%)
Cc1cccc(C)c1-c1cc2nc(n1)NS(=O)(=O)c1cccc(c1)C(=O)N1CCN(Cc3ccccc3O)CC(C1)O2 (centres unmarked) [Compound 57],,,< 1000,+++ (+++ is >60%)
Cc1cccc(C)c1-c1cc2nc(n1)NS(=O)(=O)c1cccc(c1)C(=O)N1CCN(CCC(C)C)CC(C1)O2 (centres unmarked) [Compound 58],,,< 1000,+++ (+++ is >60%)
Cc1cccc(C)c1-c1cc2nc(n1)NS(=O)(=O)c1cccc(c1)C(=O)N1CCN(CC3CC4C=CC3C4)CC(C1)O2 (centres unmarked) [Compound 59],,,< 1000,+++ (+++ is >60%)
Cc1cccc(C)c1-c1cc2nc(n1)NS(=O)(=O)c1cccc(c1)C(=O)N1CCN(Cc3sccc3Oc3ccccc3)CC(C1)O2 (centres unmarked) [Compound 61],,,< 1000,+++ (+++ is >60%)
Cc1cccc(C)c1-c1cc2nc(n1)NS(=O)(=O)c1cccc(c1)C(=O)N1CCN(CCC(C)CC(C)(C)C)CC(C1)O2 (centres unmarked) [Compound 62],,,< 1000,+++ (+++ is >60%)

# Further lines, with some results ahead:
Ent. A Max Activity (%) (Enteroid Assay A),EC50 (Enteroid Assay A) [nM],EC50 [1] [nM],Structure (SMILES),Ent. A Max Activity (%) [2]
+++ (+++ is >600%),< 1000,,Cc1cccc(C)c1-c1cc2nc(n1)NS(=O)(=O)c1cccc(c1)C(=O)N1CCN(CC3C4(CC4)C34CC4)C[C@H](C1)O2 [Compound 17],
++ (++ is 30-60%),< 1000,,Cc1cccc(C)c1-c1cc2nc(n1)NS(=O)(=O)c1cccc(c1)C(=O)N1CCN(C3CCC3)C[C@H](C1)O2 [Compound 27],
+++ (+++ is >600%),3000 to 30000,,Cc1cccc(C)c1-c1cc2nc(n1)NS(=O)(=O)c1cccc(c1)C(=O)N1CCN(C3CCOCC3)C[C@H](C1)O2 [Compound 28],
+++ (+++ is >600%),3000 to 30000,,Cc1cccc(C)c1-c1cc2nc(n1)NS(=O)(=O)c1cccc(c1)C(=O)N1CCN(CC3CC(C(=O)O)C3)C[C@H](C1)O2 (some centres unmarked) [Compound 29],
+++ (+++ is >600%),1000 to 3000,,Cc1cccc(C)c1-c1cc2nc(n1)NS(=O)(=O)c1cccc(c1)C(=O)N1CCN(CC3CCOC3)C[C@H](C1)O2 (some centres unmarked) [Compound 30],
+++ (+++ is >600%),< 1000,,CCCN1CCN2C[C@@H](C1)Oc1cc(-c3c(C)cccc3C)nc(n1)NS(=O)(=O)c1cccc(c1)C2=O [Compound 31],
+++ (+++ is >600%),< 1000,,CCCCN1CCN2C[C@@H](C1)Oc1cc(-c3c(C)cccc3C)nc(n1)NS(=O)(=O)c1cccc(c1)C2=O [Compound 32],
,,< 1000,"Cc1cccc(C)c1-c1cc2nc(n1)NS(=O)(=O)c1cccc(c1)C(=O)N1CCN(CC3CC3)C[C@H](C1)O2 [Compound 35, (16R)-18-(Cyclopropylmethyl)-12-(2,6-dimethylphenyl)-8,8-dioxo-15-oxa-8λ^6-thia-1,9,11,18,22-pentazatetracyclo[14.4.1.13,7.110,14]tricosa-3,5,7(23),10(22),11,13-hexaen-2-one]",+++ (+++ is >60%)
,,< 1000,"Cc1cccc(C)c1-c1cc2nc(n1)NS(=O)(=O)c1cccc(c1)C(=O)N1CCN(CC(C)C)CC(C1)O2 (centres unmarked) [Compound 44, 12-(2,6-Dimethylphenyl)-18-isobutyl-8,8-dioxo-15-oxa-8λ^6-thia-1,9,11,18,22-pentazatetracyclo[14.4.1.13,7.110,14]tricosa-3,5,7(23),10(22),11,13-hexaen-2-one]",+++ (+++ is >60%)
,,< 1000,Cc1cccc(C)c1-c1cc2nc(n1)NS(=O)(=O)c1cccc(c1)C(=O)N1CCN(CC3CCCCC3)CC(C1)O2 (centres unmarked) [Compound 53],++ (++ is 30-60%)
,,3000 to 30000,Cc1cccc(C)c1-c1cc2nc(n1)NS(=O)(=O)c1cccc(c1)C(=O)N1CCN(CC3CCOCC3)CC(C1)O2 (centres unmarked) [Compound 55],+++ (+++ is >60%)
,,3000 to 30000,Cc1cccc(C)c1-c1cc2nc(n1)NS(=O)(=O)c1cccc(c1)C(=O)N1CCN(CC3(C)COC3)CC(C1)O2 (centres unmarked) [Compound 56],++ (++ is 30-60%)
,,3000 to 30000,Cc1cccc(C)c1-c1cc2nc(n1)NS(=O)(=O)c1cccc(c1)C(=O)N1CCN(CCC3CCOCC3)CC(C1)O2 (centres unmarked) [Compound 60],+++ (+++ is >60%)
,,3000 to 30000,Cc1cccc(C)c1-c1cc2nc(n1)NS(=O)(=O)c1cccc(c1)C(=O)N1CCN(C)CC(C1)O2 (centres unmarked) [Compound 63],+++ (+++ is >60%)
